Assay results from ChEMBL document CHEMBL1150927, “Antineoplastic agents. 398. Isolation and structure elucidation of cephalostatins 18 and 19” (1998).
Values after ≈ are worked out from the molar mass of the structure shown.

Tests used:
Type in all cases: functional
[1] = Growth inhibition of human NCI60 cells
A498 = assay: Growth inhibition of human A498 cells
SK-MEL-5 = assay: Growth inhibition of human SK-MEL-5 cells
OVCAR-3 = assay: Growth inhibition of human OVCAR-3 cells
P388 = assay: Cytotoxicity against mouse P388 cells; details: read-out: ED50 (the source's name)
KM-20L2 = assay: Growth inhibition of human KM20L2 cells
SF-295 = assay: Growth inhibition of human SF295 cells
NCI-H460 = assay: Growth inhibition of human NCI-H460 cells

`C[C@@H]1[C@]2(O[C@H]3C=C4[C@@H]5CC[C@H]6Cc7nc8c(nc7C[C@]6(C)[C@H]5C[C@@H](O)[C@]4(C)[C@]31O)C[C@@H]1CC[C@H]3C4=CC[C@@H]5[C@H](C)[C@@]6(OC[C@]45C(=O)C[C@@H]3[C@@]1(C)C8)OC(C)(C)C[C@H]6O)O[C@](C)(CO)C[C@H]2O` [CEPHALOSTATIN 1] showed a GI50 [1] of 2.2 nM.
`CO[C@H]1c2nc3c(nc2C[C@@H]2CC[C@H]4C5=CC[C@@H]6[C@H](C)[C@@]7(OC[C@]56C(=O)C[C@@H]4[C@]21C)OC(C)(C)C[C@H]7O)C[C@@]1(C)[C@@H](CC[C@H]2C4=C[C@@H]5O[C@]6(O[C@](C)(CO)C[C@H]6O)[C@@H](C)[C@]5(O)[C@@]4(C)[C@H](O)C[C@@H]21)C3` [CEPHALOSTATIN 19] gave a GI50 (A498) of less than 1 ng/mL, a GI50 [1] of 16.6 nM and a GI50 (SK-MEL-5) of less than 1 ng/mL. For the same compound, the GI50 (OVCAR-3) was less than 1 ng/mL, the EC50 (P388) was 7.4 ng/mL (≈ 7.86 nM) and the GI50 (KM-20L2) was less than 1 ng/mL. It also gave a GI50 (SF-295) of less than 1 ng/mL and a GI50 (NCI-H460) of less than 1 ng/mL.
Work on `CO[C@H]1c2nc3c(nc2C[C@@H]2CC[C@H]4C5=C[C@@H]6O[C@]7(O[C@](C)(CO)C[C@H]7O)[C@@H](C)[C@]6(O)[C@@]5(C)[C@H](O)C[C@@H]4[C@]21C)C[C@@]1(C)[C@@H](CC[C@H]2C4=CC[C@@H]5[C@H](C)[C@@]6(OC[C@]45C(=O)C[C@@H]21)OC(C)(C)C[C@H]6O)C3` [CEPHALOSTATIN 18] yielded a GI50 (A498) of less than 1 ng/mL, a GI50 [1] of 21.7 nM and a GI50 (SK-MEL-5) of less than 1 ng/mL. It also gave a GI50 (OVCAR-3) of less than 1 ng/mL, an EC50 (P388) of 4.3 ng/mL (≈ 4.57 nM) and a GI50 (KM-20L2) of less than 1 ng/mL. The GI50 (SF-295) was less than 1 ng/mL and the GI50 (NCI-H460) was less than 1 ng/mL.
